Test results reported in US10221173B2, “Chemical compounds” (AstraZeneca AB, priority 2017, dated 2019).
In brackets after ≈: the same amount, converted by molar mass.

What was measured:
[1] = target: Estrogen Receptor (ERα) in MCF-7 cells (Homo sapiens (Human), UniProt P03372); assay: MCF-7 ER down-regulation assay (immuno-fluorescence); format: cell-based; settings: for % downregulation (in brackets): maximum downregulation
Protocol: The ability of compounds to down-regulate Estrogen Receptor (ER) numbers was assessed in a cell based immuno-fluorescence assay using the MCF-7 human ductal carcinoma breast cell line. MCF-7 cells were revived directly from a cryovial (approx 5×10^6 cells) in Assay Medium (phenol red free Dulbecco's Modified Eagle's medium (DMEM); Sigma D5921) containing 2 mM L-Glutamine and 5% (v/v) Charcoal/Dextran treated foetal calf serum. Cells were syringed once using a sterile 18G×1.5 inch (1.2×40 mm) broad gauge needle and cell density was measured using a Coulter Counter (Beckman). […] Following cell seeding, plates were incubated overnight at 37° C., 5% CO2 (Liconic carousel incubator). Test data was generated using the LabCyte Echomodel 555 compound reformatter which is part of an automated workcell (Integrated Echo 2 workcell). Compound stock solutions (10 mM) of the test compounds were used to generate a 384 well compound dosing plate (Labcyte P-05525-CV1). […] 40 μL of DMSO added to wells in row P on the source plate allowed for DMSO normalisation across the dose range. To dose the control wells 40 μL of DMSO was added to row O1 and 40 μL of 100 μM fulvestrant in DMSO was added to row O3 on the compound source plate.
The Echo uses acoustic technology to perform direct microplate-to-microplate transfers of DMSO compound solutions to assay plates. The system can be programmed to transfer volumes as low as 2.5 nL in multiple increments between microplates and in so doing generates a serial dilution of compound in the assay plate which is then back-filled to normalise the DMSO concentration across the dilution range. […] The fixing method described above was carried out on the Integrated Echo 2 workcell. Immunostaining was performed using an automated AutoElisa workcell. The PBS/Proclin was aspirated from all wells and the cells permeabilised with 40 μL PBS containing 0.5% Tween™ 20 (v/v) for 1 hour at room temperature. The plates were washed three times in 250 μL of PBS/0.05% (v/v) Tween 20 with Proclin (PBST with a Biocide preservative) and then 20 μL of ERα (SP1) Rabbit monoclonal antibody (Thermofisher) 1:1000 in PBS/Tween™/3% (w/v) Bovine Serum Albumin was added. The plates were incubated overnight at 4° C. (Liconic carousel incubator) and then washed three times in 250 μL of PBS/0.05% (v/v) Tween™ 20 with Proclin (PBST). The plates were then incubated with 20 μL/well of a goat anti-rabbit IgG AlexaFluor 594 or goat anti-rabbit AlexaFluor 488 antibody (Molecular Probes) with Hoechst at 1:5000 in PBS/Tween™/3% (w/v) Bovine Serum Albumin for 1 hour at room temperature. The plates were then washed three times in 250 μL of PBS/0.05% (v/v) Tween™ 20 with Proclin (PBST with a Biocide preservative). 20 μL of PBS was added to each well and the plates covered with a black plate seal and stored at 4° C. before being read. […] The mean total intensity was normalized for cell number giving the total intensity per cell. The data was exported into a suitable software package (such as Origin) to perform curve fitting analysis.

[2] = Log D (shake flask, 1-octanol/aqueous buffer); format: physicochemical
hERG potassium channel = hERG potassium channel (Homo sapiens (Human), UniProt Q12809)
[3] = Thermodynamic solubility (shake-flask); format: physicochemical; settings: thermodynamic from solid, phosphate buffer pH 7.4, 24 hours
[4] = target: recombinant human Estrogen Receptor alpha ligand binding domain (ER alpha-LBD (GST)) (Homo sapiens (Human), UniProt P03372); assay: ERα binding assay (LanthaScreen TR-FRET competition)
[5] = Human plasma protein binding (equilibrium dialysis); format: in vitro ADME
Protocol: The automated equilibrium dialysis assay in human plasma uses the RED (Rapid Equilibrium Dialysis) Device and sample handling. The assay generally runs over two to three days including delivery of results. After dialysis for 18 hours, plasma and buffer samples are prepared for analysis by liquid chromatography and mass spectrometry. Samples are generally tested in singlicates and quantified by LC/MSMS by using a 7-point calibration curve in plasma. The compounds are pooled together in plasma pools up to 10 compounds. Three reference compounds are used in each run, Propranolol, Metoprolol and Warfarin. Warfarin is used as a control in each pool and Propranolol and Metoprolol are placed randomly in each run. An in-house Excel macro is used for preparation of files for the robot and the mass spectrometer and is also used for the calculations of fraction unbound (fu %) in plasma.

[6] = 1-octanol/aqueous buffer, pH 7.4, pH 7.4
[7] = aqueous phosphate buffer, 25 °C, pH 7.4, aqueous buffer

Estrogen Receptor (ERα) in MCF-7 cells, sequence (P03372 whole entry): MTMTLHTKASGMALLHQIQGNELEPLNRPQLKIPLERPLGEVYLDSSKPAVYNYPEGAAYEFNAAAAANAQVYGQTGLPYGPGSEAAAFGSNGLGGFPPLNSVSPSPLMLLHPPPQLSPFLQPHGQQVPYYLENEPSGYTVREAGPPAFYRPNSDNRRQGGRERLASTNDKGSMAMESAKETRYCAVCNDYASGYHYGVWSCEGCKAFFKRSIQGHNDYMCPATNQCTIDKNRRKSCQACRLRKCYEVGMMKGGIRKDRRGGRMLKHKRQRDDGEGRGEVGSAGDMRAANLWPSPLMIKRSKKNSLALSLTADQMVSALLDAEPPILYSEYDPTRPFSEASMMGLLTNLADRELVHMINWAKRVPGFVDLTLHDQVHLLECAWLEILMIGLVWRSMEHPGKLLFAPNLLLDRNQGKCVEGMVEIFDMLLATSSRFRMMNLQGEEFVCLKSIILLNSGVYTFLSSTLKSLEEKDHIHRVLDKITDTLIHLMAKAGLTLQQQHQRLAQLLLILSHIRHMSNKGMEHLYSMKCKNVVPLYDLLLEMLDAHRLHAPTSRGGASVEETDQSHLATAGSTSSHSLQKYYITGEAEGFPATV
recombinant human Estrogen Receptor alpha ligand binding domain (ER alpha-LBD (GST)), sequence (P03372 307-554): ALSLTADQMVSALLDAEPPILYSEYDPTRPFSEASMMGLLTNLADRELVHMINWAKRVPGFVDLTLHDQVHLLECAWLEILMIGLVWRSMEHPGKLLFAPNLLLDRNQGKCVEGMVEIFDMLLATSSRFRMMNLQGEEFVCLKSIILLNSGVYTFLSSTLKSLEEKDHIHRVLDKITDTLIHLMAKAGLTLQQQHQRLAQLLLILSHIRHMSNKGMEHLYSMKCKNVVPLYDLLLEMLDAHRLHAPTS
hERG potassium channel, sequence (Q12809 whole entry): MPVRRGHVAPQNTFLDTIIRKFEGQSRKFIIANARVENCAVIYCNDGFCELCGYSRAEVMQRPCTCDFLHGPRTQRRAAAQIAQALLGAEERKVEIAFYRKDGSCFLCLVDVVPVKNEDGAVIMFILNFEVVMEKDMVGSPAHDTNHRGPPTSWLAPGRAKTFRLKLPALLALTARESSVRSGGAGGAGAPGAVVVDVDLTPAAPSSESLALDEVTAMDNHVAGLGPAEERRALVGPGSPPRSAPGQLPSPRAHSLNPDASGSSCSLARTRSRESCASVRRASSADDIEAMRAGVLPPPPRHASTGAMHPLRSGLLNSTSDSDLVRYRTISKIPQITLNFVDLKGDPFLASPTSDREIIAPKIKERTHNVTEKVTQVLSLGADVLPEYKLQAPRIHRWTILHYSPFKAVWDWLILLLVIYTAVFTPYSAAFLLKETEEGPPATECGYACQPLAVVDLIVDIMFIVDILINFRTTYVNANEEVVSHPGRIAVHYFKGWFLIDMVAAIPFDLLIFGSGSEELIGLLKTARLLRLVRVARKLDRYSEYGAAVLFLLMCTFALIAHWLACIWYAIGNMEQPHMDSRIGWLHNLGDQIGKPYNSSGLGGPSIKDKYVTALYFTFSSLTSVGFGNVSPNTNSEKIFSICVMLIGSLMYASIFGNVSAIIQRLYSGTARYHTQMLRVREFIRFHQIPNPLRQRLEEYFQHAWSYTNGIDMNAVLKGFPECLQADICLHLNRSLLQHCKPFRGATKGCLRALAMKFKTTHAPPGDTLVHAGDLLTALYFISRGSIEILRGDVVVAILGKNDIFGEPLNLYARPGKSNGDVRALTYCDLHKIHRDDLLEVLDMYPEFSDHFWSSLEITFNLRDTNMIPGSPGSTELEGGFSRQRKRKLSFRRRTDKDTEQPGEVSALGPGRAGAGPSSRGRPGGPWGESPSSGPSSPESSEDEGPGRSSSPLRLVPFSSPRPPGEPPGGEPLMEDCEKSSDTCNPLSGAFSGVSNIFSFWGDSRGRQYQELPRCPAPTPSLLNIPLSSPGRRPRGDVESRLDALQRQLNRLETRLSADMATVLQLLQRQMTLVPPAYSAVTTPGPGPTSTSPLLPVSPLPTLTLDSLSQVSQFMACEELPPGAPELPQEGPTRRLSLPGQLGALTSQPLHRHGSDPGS

| Structure (SMILES) | % downregulation (in brackets) [1] | logD [2, 6] | IC50 (hERG potassium channel) [nM] | solubility at 24 h [3, 7] [µM] | IC50 [4] [nM] | Human plasma protein binding (% free) [5] [% free] | IC50 [1] [nM] | logD ([2]; pH 7.4) | solubility at 24 h ([3]; aqueous buffer, 25° C.) [µM] |
| --- | --- | --- | --- | --- | --- | --- | --- | --- | --- |
| COc1ccc(OCCNCCCF)cc1[C@@H]1c2[nH]c3ccccc3c2C[C@@H](C)N1C[C@H](C)C(=O)O [Example 53, (S)-3-((1R,3R)-1-(5-(2-((3-fluoropropyl)amino)ethoxy)-2-methoxyphenyl)-3-methyl-1,3,4,9-tetrahydro-2H-pyrido[3,4-b]indol-2-yl)-2-methylpropanoic acid] | — (40%) | 0.1 | > 40000 | > 1000 | 150 | 80 |  |  |  |
| C[C@@H]1Cc2c([nH]c3ccccc23)[C@@H](c2c(Cl)ccc(OCCNCCCF)c2F)N1C[C@H](C)C(=O)O [Example 54, (S)-3-((1R,3R)-1-(6-chloro-2-fluoro-3-(2-((3-fluoropropyl)amino)ethoxy)phenyl)-3-methyl-1,3,4,9-tetrahydro-2H-pyrido[3,4-b]indol-2-yl)-2-methylpropanoic acid] |  | 0.9 | > 40000 | > 1000 | 5.9 | 18 | 1 |  |  |
| Cc1ccc2[nH]c3c(c2c1)C[C@@H](C)N(CC(F)(F)CO)[C@@H]3c1c(F)cnc(OCCNCCCF)c1F [Example 66, 3-((1R,3R)-1-(3,5-difluoro-2-(2-((3-fluoropropyl)amino)ethoxy)pyridin-4-yl)-3,6-dimethyl-1,3,4,9-tetrahydro-2H-pyrido[3,4-b]indol-2-yl)-2,2-difluoropropan-1-ol] |  | 3 | 5400 | 441 (≈ 232 µg/mL) | 0.71 | 1.3 | 0.34 |  |  |
| C[C@@H]1Cc2c([nH]c3ccc(F)cc23)[C@@H](c2c(F)cnc(OCCN(C)CCCF)c2F)N1CC(F)(F)CO [Example 67, 3-((1R,3R)-1-(3,5-difluoro-2-(2-((3-fluoropropyl)(methyl)amino)ethoxy)pyridin-4-yl)-6-fluoro-3-methyl-1,3,4,9-tetrahydro-2H-pyrido[3,4-b]indol-2-yl)-2,2-difluoropropan-1-ol] |  | 4 | 5700 | 80.6 (≈ 43.9 µg/mL) | 0.7 | 1.6 | 0.099 |  |  |
| C[C@@H]1Cc2c([nH]c3ccccc23)[C@@H](c2cccc(OCCNCCCF)c2C(F)F)N1CC(F)(F)CO [Example 68, 3-((1R,3R)-1-(2-(difluoromethyl)-3-(2-((3-fluoropropyl)amino)ethoxy)phenyl)-3-methyl-1,3,4,9-tetrahydro-2H-pyrido[3,4-b]indol-2-yl)-2,2-difluoropropan-1-ol] |  | 3.2 | 2000 | 56.6 (≈ 29.7 µg/mL) | 0.69 | 1.2 | 0.095 |  |  |
| C[C@@H]1Cc2c([nH]c3ccccc23)[C@@H](c2cc(OCCNCCCF)ccc2CO)N1CC(F)(F)F [Example 70, (4-(2-((3-fluoropropyl)amino)ethoxy)-2-((1R,3R)-3-methyl-2-(2,2,2-trifluoroethyl)-2,3,4,9-tetrahydro-1H-pyrido[3,4-b]indol-1-yl)phenyl)methanol] |  | 2.2 | 6300 | 231 (≈ 114 µg/mL) | 1300 | 23 | 180 |  |  |
| COCc1ccc(OCCNCCCF)cc1[C@@H]1c2[nH]c3ccccc3c2C[C@@H](C)N1CC(F)(F)F [Example 71, 3-fluoro-N-(2-(4-(methoxymethyl)-3-((1R,3R)-3-methyl-2-(2,2,2-trifluoroethyl)-2,3,4,9-tetrahydro-1H-pyrido[3,4-b]indol-1-yl)phenoxy)ethyl)propan-1-amine] | 90% |  | 5800 |  | 3.4 | 0.44 | 2 | 3.8 | < 1.6 |
| C[C@@H]1Cc2c([nH]c3ccccc23)[C@@](C)(c2cccc(OCCNCCCF)c2)N1CC(F)(F)F [Example 75, N-(2-(3-((1R,3R)-1,3-dimethyl-2-(2,2,2-trifluoroethyl)-2,3,4,9-tetrahydro-1H-pyrido[3,4-b]indol-1-yl)phenoxy)ethyl)-3-fluoropropan-1-amine] |  | 4.5 | 7700 | 0.9 (≈ 0.43 µg/mL) | 52 | 0.08 | 58 |  |  |
| C[C@@H]1Cc2c([nH]c3ccccc23)[C@@H](c2c(F)ccc(OCCNCCCF)c2F)N1CC1(S(C)(=O)=O)CC1 [Example 77, N-(2-(2,4-difluoro-3-((1R,3R)-3-methyl-2-((1-(methylsulfonyl)cyclopropyl)methyl)-2,3,4,9-tetrahydro-1H-pyrido[3,4-b]indol-1-yl)phenoxy)ethyl)-3-fluoropropan-1-amine] |  | 2.4 | 5400 | 410 (≈ 225 µg/mL) | 7.3 | 5.5 | 6.2 |  |  |
| Cc1ccc(OCCNCCCF)c(C)c1[C@@H]1c2[nH]c3ccccc3c2C[C@@H](C)N1CC(F)(F)F [Example 79, N-(2-(2,4-dimethyl-3-((1R,3R)-3-methyl-2-(2,2,2-trifluoroethyl)-2,3,4,9-tetrahydro-1H-pyrido[3,4-b]indol-1-yl)phenoxy)ethyl)-3-fluoropropan-1-amine] |  | 4.8 | 10000 | 3.9 (≈ 1.92 µg/mL) | 1.4 | <0.4 | 0.16 |  |  |
| COc1ccc(OCCNCCCF)c(F)c1[C@@H]1c2[nH]c3ccccc3c2C[C@@H](C)N1CC(F)(F)CO [Example 81, 2,2-difluoro-3-((1R,3R)-1-(2-fluoro-3-(2-((3-fluoropropyl)amino)ethoxy)-6-methoxyphenyl)-3-methyl-1,3,4,9-tetrahydro-2H-pyrido[3,4-b]indol-2-yl)propan-1-ol] |  | 2.6 | 3900 | 736 (≈ 385 µg/mL) | > 110 | 2.9 | 0.17 |  |  |
| COc1ccc(OCCNCCCF)c(F)c1[C@@H]1c2[nH]c3ccccc3c2C[C@@H](C)N1CC1(F)CC1 [Example 83, 3-fluoro-N-(2-(2-fluoro-3-((1R,3R)-2-((1-fluorocyclopropyl)methyl)-3-methyl-2,3,4,9-tetrahydro-1H-pyrido[3,4-b]indol-1-yl)-4-methoxyphenoxy)ethyl)propan-1-amine] | 90% | 2.9 | 4000 | 595 (≈ 298 µg/mL) | 1.7 | 2.5 | 0.28 |  |  |
| COc1ccc(OCCNCCCF)c(F)c1[C@@H]1c2[nH]c3ccccc3c2C[C@@H](C)N1CC1(F)COC1 [Example 84, 3-fluoro-N-(2-(2-fluoro-3-((1R,3R)-2-((3-fluorooxetan-3-yl)methyl)-3-methyl-2,3,4,9-tetrahydro-1H-pyrido[3,4-b]indol-1-yl)-4-methoxyphenoxy)ethyl)propan-1-amine] | 83% | 2.4 | 2800 | 640 (≈ 331 µg/mL) | 0.94 | 6 | 0.16 |  |  |
| C[C@@H]1Cc2c([nH]c3ccccc23)[C@@H](c2c(F)ccc(OCCNCCCF)c2Cl)N1CC(F)(F)CO [Example 85, 3-((1R,3R)-1-(2-chloro-6-fluoro-3-(2-((3-fluoropropyl)amino)ethoxy)phenyl)-3-methyl-1,3,4,9-tetrahydro-2H-pyrido[3,4-b]indol-2-yl)-2,2-difluoropropan-1-ol] |  | 3.1 | 4200 | 224 (≈ 118 µg/mL) | 1.3 | 1.0 | 0.089 |  |  |
| COc1ccc(OCCNCCCF)c(F)c1[C@@H]1c2[nH]c3ccc(F)cc3c2C[C@@H](C)N1CC(F)(F)CO [Example 86, 2,2-difluoro-3-((1R,3R)-6-fluoro-1-(2-fluoro-3-(2-((3-fluoropropyl)amino)ethoxy)-6-methoxyphenyl)-3-methyl-1,3,4,9-tetrahydro-2H-pyrido[3,4-b]indol-2-yl)propan-1-ol] |  | 2.9 | 3900 | 385 (≈ 209 µg/mL) | 0.86 | 2.6 | 0.17 |  |  |
| C[C@@H]1Cc2c([nH]c3ccc(F)cc23)[C@@H](c2c(F)ccc(NCCNCCCF)c2F)N1CC(F)(F)CO [Example 89, 3-((1R,3R)-1-(2,6-difluoro-3-((2-((3-fluoropropyl)amino)ethyl)amino)phenyl)-6-fluoro-3-methyl-1,3,4,9-tetrahydro-2H-pyrido[3,4-b]indol-2-yl)-2,2-difluoropropan-1-ol] |  | 2.7 | 6100 | 670 (≈ 354 µg/mL) | 0.91 | <3.4 | 0.14 |  |  |
| COc1cc(F)c(NCCNCCCF)cc1[C@@H]1c2[nH]c3ccccc3c2C[C@@H](C)N1CC(F)(F)F [Example 91, N1-(2-fluoro-4-methoxy-5-((1R,3R)-3-methyl-2-(2,2,2-trifluoroethyl)-2,3,4,9-tetrahydro-1H-pyrido[3,4-b]indol-1-yl)phenyl)-N2-(3-fluoropropyl)ethane-1,2-diamine] |  | 2.9 | 2600 | 280 (≈ 143 µg/mL) | 9.4 | 0.93 | 15 |  |  |
